Assay results: PMC6916368, “Cell‐Based Optimization of Covalent Reversible Ketoamide Inhibitors Bridging the Unprimed to the Primed Site of the Proteasome β5 Subunit” (Chemmedchem, 2019)
Peptide text beside a SMILES is read from it. * marks the point of attachment. Cbz = O=C(OCc1ccccc1)*; OtBu = CC(C)(C)O*

Tests used:
MV4‐11 cells = experiment: Cell viability endpoint assay (Celltiter Blue, 72 h); assay type: cell-based; settings: Homo sapiens, MV4-11, mean±SD from two independent experiments
Experimental: Cell lines. MV4‐11 (ACC 102), Jurkat (ACC 282) and THP‐1 (ACC 16) cells were obtained from DSMZ and maintained at 37 °C and 5 % CO2 at densities between 0.2–1×10^6 cells per mL in RMPI‐1640 medium supplemented with 10 % FBS, L‐glutamine (2 mM) and penicillin/streptomycin.
Cell viability endpoint assay. For the determination of cytotoxicity of proteasome inhibitors 50.000 cells per well were plated in 90 μl RPMI‐1640 medium supplemented with 0.1 % FBS and incubated overnight at 37 °C and 5 % CO2. Inhibitors were serially diluted in RPMI‐1640 medium as 10‐fold stocks and added to cells giving the final concentration (1 nM to 10 μM, Figure S2–S4) and incubated for 72 h at 37 °C and 5 % CO2. Cell viability was determined using the Celltiter Blue assay (Promega) by adding 20 μl of reagent, incubation for 120 minutes at 37 °C and 5 % CO2 and fluorescent read‐out using a Tecan M1000 microplate reader. Dose‐response curves were fitted to the equation “Y=Bottom+(Top‐Bottom)/(1+10^(X−L°^gIC50))” using GraphPad Prism 7.02. IC50 values are determined from technical triplicates as mean value of two independent experiments. Standard deviations (Table S1) as well as dose response curves (SI chapter 2b) are given in the supplementary information.

[1] = biological target: T1, β5c subunit of isolated human 20S proteasome (Homo sapiens, UniProt P28074); experiment: Proteasome inhibition assay (20 S Proteasome Assay Kit, Suc‐LLVY‐AMC); assay type: biochemical; settings: for inhibition at 1 µM: c = 1 µM, n=1, read-out: Inhibition cCP β5; for inhibition at 0.1 µM: c=100 nM, read-out: Rel. Inhibition β5c
T1 construct: purchased Enzo Life Sciences
Experimental: (§1) Proteasome inhibition assay. […] The 20 S Proteasome Assay Kit for Drug Discovery was used according to the supplier's protocol using Suc‐LLVY‐AMC (β5), Bz‐VGR‐AMC (β2) or Z‐LLE‐AMC (β1) as substrates (Enzo Life Sciences). Single point measurements of residual activity of proteasome activity were performed at a final concentration of 100 nM (n=3, β5c, β5i) or 1 μM (n=1, β1c, β2c, β5c, β5i, SI chapter 2a, Table S1). […] Inhibitors were prepared in 2‐fold concentration (cfinal=100 nM) and added to proteasomes (mfinal=200 ng/well). After 30 min incubation, substrate was added (cfinal=100 μM), incubated for 60 minutes and fluorescence was read using a Tecan M1000 microplate reader. […] IC50 values were determined from technical duplicates as mean value of three independent experiments.

[2] = biological target: T2, β5i subunit of isolated human 20S proteasome (Homo sapiens, UniProt P28062); experiment: as above; assay type: biochemical; settings: for inhibition at 1 µM: c = 1 µM, n=1, read-out: Inhibition iCP β5; for inhibition at 0.1 µM: c=100 nM, read-out: Rel. Inhibition β5i
T2 construct: purchased Enzo Life Sciences
Experimental: as §1

[3] = biological target: T3, β2c subunit of isolated human 20S proteasome (Homo sapiens, UniProt Q99436); experiment: Proteasome inhibition assay (20 S Proteasome Assay Kit, Bz‐VGR‐AMC); assay type: biochemical; settings: c = 1 µM, n=1; read-out: Inhibition cCP β2
T3 construct: purchased Enzo Life Sciences
Experimental: Proteasome inhibition assay. Bortezomib (Selleckchem) and carfilzomib (MedChemExpress) were purchased and used without further purification. The 20 S Proteasome Assay Kit for Drug Discovery was used according to the supplier's protocol using Suc‐LLVY‐AMC (β5), Bz‐VGR‐AMC (β2) or Z‐LLE‐AMC (β1) as substrates (Enzo Life Sciences). Single point measurements of residual activity of proteasome activity were performed at a final concentration of 100 nM (n=3, β5c, β5i) or 1 μM (n=1, β1c, β2c, β5c, β5i, SI chapter 2a, Table S1). […] Inhibitors were prepared in 2‐fold concentration (cfinal=100 nM) and added to proteasomes (mfinal=200 ng/well). After 30 min incubation, substrate was added (cfinal=100 μM), incubated for 60 minutes and fluorescence was read using a Tecan M1000 microplate reader. Dose‐response curves were fitted to the equation Y=100/(1+10^((L°^gIC50−X)*HillSl°^pe)) using GraphPad Prism 7.02. IC50 values were determined from technical duplicates as mean value of three independent experiments.

[4] = biological target: T4, β1c subunit of isolated human 20S proteasome (Homo sapiens, UniProt P28072); experiment: Proteasome inhibition assay (20 S Proteasome Assay Kit, Z‐LLE‐AMC); assay type: biochemical; settings: c = 1 µM, n=1; read-out: Inhibition cCP β1
T4 construct: purchased Enzo Life Sciences
Experimental: as §1

| Structure (SMILES) | IC50 (MV4‐11 cells) | inhibition at 1 µM [1] | inhibition at 0.1 µM [1] | inhibition at 1 µM [2] | inhibition at 0.1 µM [2] | inhibition at 1 µM [3] | inhibition at 1 µM [4] |
| --- | --- | --- | --- | --- | --- | --- | --- |
| CC(C)C[C@@H](C=O)NC(=O)[C@H](CC(=O)OC(C)(C)C)NC(=O)[C@H](CC(C)C)NC(=O)OCc1ccccc1 [Compound 5, BSc2118, reference compound] (Cbz-Leu-Asp(OtBu)-Leu-aldehyde) | 123 ± 12 nM | 90% | 54% | 72% | 11% | 4% | 16% |
| Cc1cc(C)c(Oc2ccccc2)cc1NC(=O)C(=O)[C@H](CC(C)C)NC(=O)[C@H](CC(C)C)NC(=O)[C@H](CC(C)C)NC(=O)OCc1ccccc1 [Compound 11, Benzyl((S)‐1‐(((S)‐1‐(((S)‐1‐((2,4‐dimethyl‐5‐phenoxyphenyl)amino)‐5‐methyl‐1,2‐dioxo‐hexan‐3‐yl)amino)‐4‐methyl‐1‐oxopentan‐2‐yl)amino)‐4‐methyl‐1‐oxopentan‐2‐yl)carbama‐te] | 19 ± 1 nM | 59% | 46% | 10% | 12% | 10% | -10% |
| Cc1ccc(NC(=O)C(=O)[C@H](CC(C)C)NC(=O)[C@H](CC(=O)OC(C)(C)C)NC(=O)[C@H](CC(C)C)NC(=O)OCc2ccccc2)c(C)c1 [Compound 17, tert ‐Butyl‐(S)‐3‐((S)‐2‐(((benzyloxy)carbonyl)amino)‐4‐methylpentanamido)‐4‐(((S)‐1‐((2,4‐dime‐thylphenyl)amino)‐5‐methyl‐1,2‐dioxohexan‐3‐yl)amino)‐4‐oxobutanoate] | 46 ± 1 nM | 88% | 43% | 69% | 36% | -10% | 11% |
| CC(C)C[C@@H](C=O)NC(=O)[C@H](CC(C)C)NC(=O)[C@H](CC(C)C)NC(=O)c1cc(Cl)ccc1Cl [Compound 24, 2,5‐Dichloro‐N‐((S)‐4‐methyl‐1‐(((S)‐4‐methyl‐1‐(((S)‐4‐methyl‐1‐oxopentan‐2‐yl)‐amino)‐1‐oxo‐pentan‐2‐yl)amino)‐1‐oxopentan‐2‐yl)benzamide] | 16 ± 1 nM | 94% | 76% | 89% | 60% | 26% | 13% |

Continued by falling IC50 (MV4‐11 cells), values first:

| IC50 (MV4‐11 cells) | inhibition at 1 µM [1] | inhibition at 0.1 µM [1] | inhibition at 1 µM [2] | inhibition at 0.1 µM [2] | inhibition at 1 µM [3] | inhibition at 1 µM [4] | Structure (SMILES) |
| --- | --- | --- | --- | --- | --- | --- | --- |
| 76 ± 14 nM | 59% | 28% | 7% | 18% | 2% | -12% | CC(C)C[C@H](NC(=O)OCc1ccccc1)C(=O)N[C@@H](CC(=O)OC(C)(C)C)C(=O)N[C@@H](CC(C)C)C(=O)C(=O)Nc1ccccc1Oc1ccccc1 [Compound 18, tert ‐Butyl‐(S)‐3‐((S)‐2‐(((benzyloxy)carbonyl)amino)‐4‐methylpentanamido)‐4‐(((S)‐5‐methyl‐1,2‐dioxo‐1‐((2‐phenoxyphenyl)amino)hexan‐3‐yl)amino)‐4‐oxobutanoate] |
| 58 ± 10 nM | 53% | 26% | -1% | 8% | -4% | -19% | Cc1cc(C)c(Oc2ccccc2)cc1NC(=O)C(=O)[C@H](CC(C)C)NC(=O)[C@H](CC(=O)OC(C)(C)C)NC(=O)[C@H](CC(C)C)NC(=O)c1cc(Cl)ccc1Cl [Compound 29, tert ‐Butyl (S)‐3‐((S)‐2‐(2,5‐dichlorobenzamido)‐4‐methylpentanamido)‐4‐(((S)‐1‐((2,4‐dimethyl‐5‐phenoxyphenyl)amino)‐5‐methyl‐1,2‐dioxohexan‐3‐yl)amino)‐4‐oxobuta‐noate] |
| 45 ± 3 nM | 63% | 25% | 23% | 5% | 2% | -3% | CC(C)C[C@H](NC(=O)OCc1ccccc1)C(=O)N[C@@H](CC(C)C)C(=O)N[C@@H](CC(C)C)C(=O)C(=O)Nc1ccc(Oc2ccccc2)cc1 [Compound 10, Benzyl‐((S)‐4‐methyl‐1‐(((S)‐4‐methyl‐1‐(((S)‐5‐methyl‐1,2‐dioxo‐1‐((4‐phenoxyphenyl)‐amino)hexan‐3‐yl)amino)‐1‐oxopentan‐2‐yl)amino)‐1‐oxopentan‐2‐yl)carbamate] |
| 36 ± 5 nM | 84% | 53% | 31% | 43% | 9% | -15% | CC(C)C[C@H](NC(=O)OCc1ccccc1)C(=O)N[C@@H](CC(=O)OC(C)(C)C)C(=O)N[C@@H](CC(C)C)C(=O)C(=O)Nc1cccc(Oc2ccccc2)c1 [Compound 19, tert ‐Butyl‐(S)‐3‐((S)‐2‐(((benzyloxy)carbonyl)amino)‐4‐methylpentanamido)‐4‐(((S)‐5‐methyl‐1,2‐dioxo‐1‐((3‐phenoxyphenyl)amino)hexan‐3‐yl)amino)‐4‐oxobutanoate] |
| 28 ± 5 nM | 90% | 64% | 75% | 38% | 10% | 9% | CC(C)C[C@@H](C=O)NC(=O)[C@H](CC(=O)OC(C)(C)C)NC(=O)[C@H](CC(C)C)NC(=O)c1cc(Cl)ccc1Cl [Compound 25, tert ‐Butyl (S)‐3‐((S)‐2‐(2,5‐dichlorobenzamido)‐4‐methylpentanamido)‐4‐(((S)‐4‐methyl‐1‐oxopen‐tan‐2‐yl)amino)‐4‐oxobutanoate] |
| 27 ± 8 nM | 78% | 41% | 30% | 29% | 5% | -10% | Cc1c(NC(=O)C(=O)[C@H](CC(C)C)NC(=O)[C@H](CC(C)C)NC(=O)[C@H](CC(C)C)NC(=O)OCc2ccccc2)cccc1Oc1ccccc1 [Compound 14, Benzyl((S)‐4‐methyl‐1‐(((S)‐4‐methyl‐1‐(((S)‐5‐methyl‐1‐((2‐methyl‐3‐phenoxyphenyl)‐amino)‐1,2‐dioxohexan‐3‐yl)amino)‐1‐oxopentan‐2‐yl)amino)‐1‐oxopentan‐2‐yl)carbamate] |
